Data from ChEMBL document CHEMBL6074691, “Discovery of 22(S)-23-phenyl-24-norchol-5-en-3β,22-diol (PFM046) as the first-in-class, steroidal, non-sulfated Liver X Receptor antagonist with anticancer activity” (Eur J Med Chem, 2025).
Active and inactive are the calls of the source. The rule behind the calls is not given here.

Key:
[1] = target: T1, Oxysterols receptor LXR-alpha (Homo sapiens, UniProt Q13133); assay: Antagonist activity at LXRalpha (unknown origin)
T1 sequence (Q13133 whole entry): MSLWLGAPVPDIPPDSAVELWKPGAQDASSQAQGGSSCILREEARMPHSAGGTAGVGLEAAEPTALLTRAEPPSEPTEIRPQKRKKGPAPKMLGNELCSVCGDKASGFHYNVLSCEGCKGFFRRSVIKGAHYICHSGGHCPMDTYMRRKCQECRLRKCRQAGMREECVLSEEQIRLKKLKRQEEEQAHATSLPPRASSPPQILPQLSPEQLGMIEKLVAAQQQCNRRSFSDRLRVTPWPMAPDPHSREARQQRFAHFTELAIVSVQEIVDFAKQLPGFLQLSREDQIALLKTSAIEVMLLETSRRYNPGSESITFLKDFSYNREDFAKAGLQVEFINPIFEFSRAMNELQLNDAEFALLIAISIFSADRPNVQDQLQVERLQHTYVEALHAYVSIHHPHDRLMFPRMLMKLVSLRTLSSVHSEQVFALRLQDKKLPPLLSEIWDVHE

[2] = test system: Lewis lung carcinoma cell line; assay: Antitumor activity against mouse Lewis lung carcinoma cell line assessed as reduction in cell number at 10 uM incubated for 72 hrs by trypan blue assay; format: functional, cell-based
B16-F1 = assay: Antitumor activity against mouse B16-F1 cells implanted in C57BL/6 mouse assessed as reduction in tumor volume at 300 to 400 ug, ip administered 5 days per week and measured every 2 to 3 days by caliper method; format: functional, organism-based; conditions: dose 300-400 µg
[3] = test system: Lewis lung carcinoma cell line; assay: Antitumor activity against mouse Lewis lung carcinoma cell line implanted in C57BL/6 mouse assessed as reduction in tumor volume at 300 to 400 ug, ip administered 5 days per week and measured every 2 to 3 days by caliper method; format: functional, organism-based; conditions: dose 300-400 µg
[4] = Kinetic solubility of compound in PBS at pH 7.4 by Rapidfire-MS/MS method; format: physicochemical; conditions: buffer
[5] = Unbound fraction in human plasma by dialysis method; format: ADME, cell-free
[6] = Unbound fraction in mouse plasma by dialysis method; format: ADME, cell-free
[7] = Hepatic intrinsic clearance in human liver microsomes assessed per mg protein at 0.5 uM in presence of NADPH regenerating system by UHPLC-MS/MS method; format: ADME, Microsome; conditions: read-out: CLH
[8] = Hepatic intrinsic clearance in mouse liver microsomes assessed per mg protein at 0.5 uM in presence of NADPH regenerating system by UHPLC-MS/MS method; format: ADME, Microsome; conditions: read-out: CLH
[9] = Drug uptake in C57BL/6 mouse at 400 ug, ip measured after 1 hr by UHPLC-MS/MS analysis; format: ADME, organism-based; conditions: in vivo, dose 400 µg, read-out: Drug uptake
[10] = Drug uptake in C57BL/6 mouse at 400 ug, ip measured after 3 hrs by UHPLC-MS/MS analysis; format: ADME, organism-based; conditions: in vivo, dose 400 µg, read-out: Drug uptake
[11] = Drug uptake in C57BL/6 mouse at 400 ug, ip measured after 6 hrs by UHPLC-MS/MS analysis; format: ADME, organism-based; conditions: in vivo, dose 400 µg, read-out: Drug uptake
[12] = Drug uptake in C57BL/6 mouse at 400 ug, ip measured after 24 hrs by UHPLC-MS/MS analysis; format: ADME, organism-based; conditions: in vivo, dose 400 µg, read-out: Drug uptake
[13] = Cmax in C57BL/6 mouse at 400 ug, ip by UHPLC-MS/MS analysis; format: ADME, organism-based; conditions: in vivo, dose 400 µg
[14] = Tmax in C57BL/6 mouse at 400 ug, ip by UHPLC-MS/MS analysis; format: ADME, organism-based; conditions: in vivo, dose 400 µg
[15] = Clast in C57BL/6 mouse at 400 ug, ip by UHPLC-MS/MS analysis; format: ADME, organism-based; conditions: in vivo, dose 400 µg
[16] = Tlast in C57BL/6 mouse at 400 ug, ip by UHPLC-MS/MS analysis; format: ADME, organism-based; conditions: in vivo, dose 400 µg
[17] = AUClast in C57BL/6 mouse at 400 ug, ip by UHPLC-MS/MS analysis; format: ADME, organism-based; conditions: in vivo, dose 400 µg
U-937 [18] = assay: Downregulation of SREBP-1 expression in human U-937 cells incubated for 72 hrs by qRT-PCR analysis; format: functional, cell-based
U-937 [19] = assay: Downregulation of SCD1 expression in human U-937 cells incubated for 72 hrs by qRT-PCR analysis; format: functional, cell-based
U-937 [20] = assay: Downregulation of FASN expression in human U-937 cells incubated for 72 hrs by qRT-PCR analysis; format: functional, cell-based
U-937 [21] = assay: Upregulation of ABCA1 expression in human U-937 cells incubated for 72 hrs by qRT-PCR analysis; format: functional, cell-based
[22] = Observed AUC infinity in C57BL/6 mouse at 400 ug, ip by UHPLC-MS/MS analysis; format: ADME, organism-based; conditions: in vivo, dose 400 µg
Mus musculus = assay: Observed extrapolated AUC in C57BL/6 mouse at 400 ug, ip by UHPLC-MS/MS analysis; format: ADME, organism-based; conditions: in vivo, at 400 µg
[23] = target: T1, Oxysterols receptor LXR-alpha; assay: Antagonist activity at LXRalpha (unknown origin) by TR-FRET assay

Row | SMILES | IC50 [1] | Activity (B16-F1) | Activity [3] | Kinetic_solubility [4] | Fu [5] | Fu [6] | microsomal CLint at 0.5 µM [7] | microsomal CLint at 0.5 µM [8] | concentration at 1 h [9] | concentration at 3 h [10] | concentration at 6 h [11] | Cmax [13] | Tmax [14] | Clast [15] | Tlast [16] | AUC(0-t) [17] | IC50 [23] | also measured
1 | CC(C)CCC[C@@H](C)[C@H]1CC[C@H]2[C@@H]3C[C@@H]4O[C@@]45C[C@@H](OS(=O)(=O)O)CC[C@]5(C)[C@H]3CC[C@]12C | 2000 nM | – | – | – | – | – | – | – | – | – | – | – | – | – | – | – | – | –
2 | C[C@@H]([C@H]1CC[C@H]2[C@@H]3CC=C4C[C@@H](O)CC[C@]4(C)[C@H]3CC[C@]12C)[C@@H](O)Cc1ccccc1 | – | Active | Active | NotTraceable | < 1% | < 1% | < 9.9 µL/min/mg | 45.8 µL/min/mg | 68.9 ng/mL | 109 ng/mL | 110 ng/mL | 174 ng/mL | 6 h | 167 ng/mL | 24 h | 3070 ng·h/mL | – | Activity [2]: Active; concentration at 24 h [12]: 167 ng/mL; Activity (U-937 [18]): Active; Activity (U-937 [19]): Active; Activity (U-937 [20]): Active; Activity (U-937 [21]): Active
3 | CC(C)CCC[C@@H](C)[C@H]1CC[C@H]2[C@@H]3C(=O)C=C4C[C@@H](OS(=O)(=O)O)CC[C@]4(C)[C@H]3CC[C@]12C | 5000 nM | – | – | – | – | – | – | – | – | – | – | – | – | – | – | – | – | –
4 | CC(C)CC[C@H](O)[C@@H](C)[C@H]1CC[C@H]2[C@@H]3CC=C4C[C@@H](OS(=O)(=O)[O-])CC[C@]4(C)[C@H]3CC[C@]12C.[Na+] | – | Active | Active | NotTraceable | < 1% | < 1% | 26.4 µL/min/mg | 17.2 µL/min/mg | 3170 ng/mL | 363 ng/mL | 65.2 ng/mL | 3170 ng/mL | 1 h | 65.2 ng/mL | 6 h | 4690 ng·h/mL | – | AUC(0-inf) [22]: 4800 ng·h/mL; %AUCextra (Mus musculus): 2.5%
5 | CC(C)[C@@H](O)CC[C@@H](C)[C@H]1CC[C@H]2[C@@H]3CC=C4C[C@@H](OS(=O)(=O)O)CC[C@]4(C)[C@H]3CC[C@]12C | – | – | – | – | – | – | – | – | – | – | – | – | – | – | – | – | 150 nM | –
6 | CC(C)[C@H](CC[C@@H](C)[C@H]1CC[C@H]2[C@@H]3CC=C4C[C@@H](O)CC[C@]4(C)[C@H]3CC[C@]12C)OS(=O)(=O)O | – | – | – | – | – | – | – | – | – | – | – | – | – | – | – | – | 310 nM | –
